The text below walks through data of patent publication US7838045B2, “Anti-inflammatory activity of phenethylisothiocyanate (PEITC) and the Barbarea verna seed preparation containing this compound” (priority 2005, dated 2010).

Common to all, as to assay type: cell-based, mouse
One assay concerns iNOS. Briefly: qPCR gene expression in LPS-stimulated RAW264.7 macrophages, iNOS. The following applies: for iNOS % down-regulation: 8 hour treatment. As to the method: (§1) The mouse monocyte/macrophage cell line RAW 264.7 (obtained from American Type Culture Collection, ATCC, VA USA) was maintained in Dulbecco's Modified Eagle Medium (DMEM) (Invitrogen Inc) supplemented with 100 U/ml penicillin, 100 μg/ml streptomycin, and 10% heat-inactivated fetal calf serum. All incubations were at 37° C. in a 5% CO2 in internal air atmosphere, within the growth chamber.
(§2) Cells were seeded at a density of 0.4×10^6 cells per well (viable cell counts performed with a hemocytometer), in 24 well plates 12 hours prior to treatment. The cells were then treated with test compounds at required concentrations (pre-determined doses) for 2 hours before elicitation with LPS at 1 μg/ml for an additional 6 hours. For every experiment one positive control (cells treated only with LPS) and one negative control (cells without any treatment) were included. For treatments and the controls, two replicates were made in each case. At the end, cells were harvested in Trizol reagent (Invitrogen Inc) for subsequent cellular RNA extraction. The stock of BSP used for the assay was prepared by partially dissolving 50 mg/ml seed preparation in 95% ethyl alcohol for 15 minutes by sonication, where it released PEITC in the clear supernatant that was used for the cell treatment. Cell viability was measured by MTT assay (Mosmann (1983) J. Immunol. Methods 65:55-63).
(§3) Total RNA was extracted from RAW macrophages using Trizol reagent (Invitrogen Inc.) following manufacturer instructions. RNA was quantified spectro-photometrically by absorption measurements at 260 nm and 280 nm using NanoDrop™ system (NanoDrop Technologies Inc. DE, USA). RNA was assessed qualitatively by gel-electrophoresis methods. RNA was then treated with DnaseI (Invitrogen Inc.) also following manufacturer guidelines, to remove any traces of DNA contamination. The cDNAs were synthesized using 3 μg of RNA for each sample using Stratascript™ Reverse Transcriptase, an RNA dependent DNA polymerase (Stratagene, La Jolla, Calif.), following manufacturer protocol. Utmost care was taken to minimize any quantification inaccuracy and pipetting error.
(§4) The synthesized cDNAs were diluted 4-fold. 2 μl of each of these diluted samples were used for PCR reactions of 25 μl final volume. The other components of the PCR reactions were 0.5 μl of 6 μM gene specific primers (oligos synthesized by IDT Inc. USA), 12.5 μl of Brilliant SYBR green PCR master mix (2×) (Stratagene, La Jolla, Calif.) containing green jump-start Taq ready mix. ROX (Stratagene, La Jolla, Calif.) was used as an internal dye. To avoid interference due to genomic DNA contamination, only intron-overlapping primers were selected using the software Primer Express™ (Applied Biosystem, Foster City, Calif.) as follows:
(§5) Forward and reverse pairs of the primers are indicated above as “F” and “R” respectively. PCR amplifications were performed on MX3000p system (Stratagene, La Jolla, Calif.) using 1 cycle at 50° C. for 2 min, 1 cycle of 95° C. for 10 minutes, followed by 40 cycles of 15 seconds at 95° C. and 1 min at 60° C. The dissociation curve was completed with one cycle of 1 minute at 95° C., 30 seconds of 55° C. and 30 seconds of 95° C. NRT (non-RT control) and NTC (no template control) were included in the PCR program as quality control steps.
(§6) RNA expressions for COX2, iNOS and IL1β, normalized with respect to the expression of housekeeping β-actin gene, were analyzed using the ΔΔCt method (software from Stratagene inc, USA) as described by Pfaffl (Pfaffl, 2001, Nucleic Acids Res 29(9):2002-2007). The ΔΔCt values obtained from these analyses were converted [(1−ΔΔCt)×100] to obtain percentage of inhibition (% inhibition or % downregulation) which reflected the anti-inflammatory properties of the test compounds (Table 2, 4). A value of 100% indicates complete inhibition of LPS-stimulated genetic up-regulation. 0% implies absence of any anti-inflammatory activity of the test compound. […]
For orientation: In qPCR the cycle at which signal appears reflects the starting amount.

In the next assay the test system is IL1β. Nature of the assay: qPCR gene expression in LPS-stimulated RAW264.7 macrophages, IL1β. The following applies: for IL1β % down-regulation: 8 hour treatment. The procedure:
as §1, §2, §3, §4, §5, §6

Another assay relates to COX2. Nature of the assay: qPCR gene expression in LPS-stimulated RAW264.7 macrophages, COX2. The following applies: for COX2 % down-regulation: 8 hour treatment. The procedure:
as §1
as §2, with “The stock of BSP used for the assay was prepared by partially dissolving 50 mg/ml seed preparation in 95% ethyl alcohol for 15 minutes by sonication, where it released PEITC in the clear supernatant that was used for the cell treatment.” left out
as §3, §4, §5
RNA expressions for COX2, iNOS and IL1β, normalized with respect to the expression of housekeeping β-actin gene, were analyzed using the ΔΔCt method (software from Stratagene inc, USA) as described by Pfaffl (Pfaffl, 2001, Nucleic Acids Res 29(9):2002-2007). The ΔΔCt values obtained from these analyses were converted [(1−ΔΔCt)×100] to obtain percentage of inhibition (% inhibition or % downregulation) which reflected the anti-inflammatory properties of the test compounds (Table 2, 4). A value of 100% indicates complete inhibition of LPS-stimulated genetic up-regulation. 0% implies absence of any anti-inflammatory activity of the test compound.

[1] abbreviates: Mus musculus, RAW264.7, pure compound.

SMILES strings stand for the structures.

With `C=CCN=C=S` [Allyl], the iNOS % down-regulation in the assay with iNOS (5 μM) was 76%; in the assay on iNOS (5 μM, listed as allyl) it was “equally active as PEITC”. Moreover, the IL1β % down-regulation with IL1β (5 μM) was 86%; in the assay with IL1β (5 μM, listed as allyl) it was “equally active as PEITC”. For the same compound, the COX2 % down-regulation result in the assay with COX2 (5 μM) is “Up-regulation”.
As for `CC(C)N=C=S` [Isopropyl], the iNOS % down-regulation came out at 9% in the assay on iNOS (5 μM) and 7% with iNOS (10 μM). Further, the values for the IL1β % down-regulation in the assay with IL1β (5 μM) and in the assay with IL1β (10 μM) were 40% and 59%, respectively. Moreover, the COX2 % down-regulation result with COX2 (5 μM) and with COX2 (10 μM) was “Up-regulation” in each case.
What is called IC50 is the concentration at which inhibition is half-maximal. Consider `S=C=NCCc1ccccc1` [PEITC, phenethylisothiocyanate], for which the iNOS % down-regulation in the assay with iNOS (1 μM) came out at 2.0 ± 7.1%; with iNOS (5 μM), 69.8 ± 21.1%; in the assay with iNOS (10 μM) it was 81.7 ± 5.5%; in the assay with iNOS (20 μM), 99.5 ± 0.7%; in the assay on iNOS (40 μM), 99.5 ± 0.7%; with iNOS (80 μM) it was 99.5 ± 0.7%. Moreover, the IC50 in the assay on iNOS (setting [1]) amounted to 4 µM; in the assay with IL1β (Mus musculus, RAW264.7, pure compound, read-out: IC50 in IL1 β-assay) it was 2 µM; with COX2 (setting [1]) it was 17 µM. In addition, the IL1β % down-regulation in the assay on IL1β (1 μM) is reported as 36.5 ± 9.2%; in the assay on IL1β (5 μM) it was 86.0 ± 9.8%; in the assay on IL1β (10 μM) it was 92.0 ± 10.4%; in the assay with IL1β (20 μM), 100.0 ± 0.0%; with IL1β (40 μM), 100.0 ± 0.0%; in the assay with IL1β (80 μM), 100.0 ± 0.0%. Further, the COX2 % down-regulation with COX2 (1 μM) is recorded as −73.5 ± 20.5%; in the assay on COX2 (5 μM), 19.0 ± 27.1%; in the assay on COX2 (10 μM) it was 28.3 ± 15.0%; in the assay on COX2 (20 μM), 99.5 ± 0.7%; with COX2 (40 μM) it was 100.0 ± 0.0%; in the assay with COX2 (80 μM) it was 100.0 ± 0.0%.
Regarding `S=C=Nc1ccccc1` [Phenyl], the iNOS % down-regulation with iNOS (5 μM) is reported as 31%; in the assay with iNOS (10 μM) it was 35%. For the same compound, the results for the IL1β % down-regulation in the assay with IL1β (5 μM) and with IL1β (10 μM) were 47% and 59%, respectively. Besides, the COX2 % down-regulation result in the assay with COX2 (5 μM) was “Up-regulation”; with COX2 (10 μM), 3%.
On to `CC(C)(C)N=C=S` [Tert-butyl], for which the iNOS % down-regulation in the assay with iNOS (5 μM) is listed as 3%; in the assay on iNOS (10 μM), 0%. The IL1β % down-regulation in the assay with IL1β (5 μM) is on record as 44%; with IL1β (10 μM), 61%. Besides, the COX2 % down-regulation entry in the assay on COX2 (5 μM) and in the assay with COX2 (10 μM) was “Up-regulation” each time.
Take `CS(=O)(=O)c1ccc(C2=C(c3ccccc3)C(=O)OC2)cc1` [rofecoxib]: the iNOS % down-regulation is given as 35% in the assay with iNOS (1 μM), 37% with iNOS (5 μM), 68% in the assay with iNOS (10 μM) and 45% with iNOS (20 μM). Besides, the IL1β % down-regulation in the assay on IL1β (1 μM) was 18%; with IL1β (5 μM) it was 10%; in the assay with IL1β (10 μM), 12%; in the assay with IL1β (20 μM), 15%. The COX2 % down-regulation in the assay on COX2 (1 μM) is given as −52%; with COX2 (5 μM), 8%; in the assay on COX2 (10 μM) it was 22%; with COX2 (20 μM), 25%.
